From patent publication US10681909B2, “Herbicidal triazoles” (FMC Corporation, priority 2014, dated 2020)

How the values were obtained:
wheat (winter wheat) = test: Test C postemergence; assay type: in vivo, Triticum aestivum
Procedure, shortened: (§1)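 Test chemicals in a non-phytotoxic solvent mixture with surfactant were applied to pots of plants at 2 to 18 cm (1- to 4-leaf stage) for postemergence treatment, grown in a peat-based medium with vermiculite, starter nutrients and dolomitic limestone. Preemergence treatment was to seeds freshly planted in loam soil mixed with sand.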

waterhemp = test: Test C postemergence; assay type: in vivo, Amaranthus rudis
Procedure, shortened: as §1

barnyardgrass [1] = test: Test B flooded paddy test; assay type: in vivo, Echinochloa crus-galli; conditions: 250 g ai/ha, applied to paddy water at 2-leaf stage, visual rating after 13 to 15 d, scale 0 (no effect) to 100 (complete control)
Procedure, shortened: (§2)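 Pots were flooded to 3 cm above the soil at treatment, and compounds were applied directly into the paddy water. That depth was held throughout. After 13 to 15 d in a greenhouse, plants were rated visually against untreated controls.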

sedge, umbrella = test: Test B flooded paddy test; assay type: in vivo, Cyperus difformis; conditions: 250 g ai/ha, applied to paddy water at 2-leaf stage, visual rating after 13 to 15 d, scale 0 (no effect) to 100 (complete control)
Procedure, shortened: as §2

lambsquarters = test: Test C postemergence; assay type: in vivo, Chenopodium album
Procedure, shortened: as §1

oilseed rape = test: Test C postemergence; assay type: in vivo, Brassica napus
Procedure, shortened: as §1

oat, wild = test: Test C postemergence; assay type: in vivo, Avena fatua
Procedure, shortened: as §1

corn = test: Test C postemergence; assay type: in vivo, Zea mays
Procedure, shortened: as §1

nutsedge, yellow = test: Test C postemergence; assay type: in vivo, Cyperus esculentus
Procedure, shortened: as §1

ryegrass, Italian = test: Test C postemergence; assay type: in vivo, Lolium multiflorum
Procedure, shortened: as §1

galium = test: Test C postemergence; assay type: in vivo, Galium aparine
Procedure, shortened: as §1

pigweed [2] = test: Test A preemergence; assay type: in vivo, Amaranthus retroflexus; conditions: 0 to 100 scale (0 no effect, 100 complete control)
Procedure, shortened: (§3)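 Test chemicals, formulated in a surfactant-containing non-phytotoxic solvent mixture, are applied either as a directed soil spray to newly planted seeds or as a postemergence application to plants at the one- to two-leaf stage (2–10 cm). All plants grow in a loam soil and sand blend.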

foxtail, giant [3] = test: Test C postemergence; assay type: in vivo, Setaria faberii
Procedure, shortened: as §1

blackgrass = test: Test C postemergence; assay type: in vivo, Alopecurus myosuroides
Procedure, shortened: as §1

pigweed [4] = test: Test A postemergence; assay type: in vivo, Amaranthus retroflexus; conditions: 0 to 100 scale (0 no effect, 100 complete control), approx. 10 d
Procedure, shortened: as §3

soybean = test: Test C postemergence; assay type: in vivo, Glycine max
Procedure, shortened: as §1

chickweed = test: Test C postemergence; assay type: in vivo, Stellaria media
Procedure, shortened: as §1

barnyardgrass [5] = test: Test C postemergence; assay type: in vivo, Echinochloa crus-galli
Procedure, shortened: as §1

wheat = test: Test A postemergence; assay type: in vivo, Triticum aestivum; conditions: 0 to 100 scale (0 no effect, 100 complete control), approx. 10 d
Procedure, shortened: as §3

foxtail, giant [6] = test: Test A postemergence; assay type: in vivo, Setaria faberii; conditions: 0 to 100 scale (0 no effect, 100 complete control), approx. 10 d
Procedure, shortened: as §3

FC(F)(F)COc1nc(-c2ccccc2)nn1Cc1ccnc(C(F)(F)F)c1 [Compound 24]
Plant response rating (scale of 0 to 100 where 0 is no effect and 100 is complete control) (wheat (winter wheat); 31 g ai/ha): 5
Plant response rating (scale of 0 to 100 where 0 is no effect and 100 is complete control) (wheat (winter wheat); 62 g ai/ha): 5
Plant response rating (scale of 0 to 100 where 0 is no effect and 100 is complete control) (wheat (winter wheat); 125 g ai/ha): 5
Plant response rating (scale of 0 to 100 where 0 is no effect and 100 is complete control) (wheat (winter wheat); 250 g ai/ha): 5
Plant response rating (scale of 0 to 100 where 0 is no effect and 100 is complete control) (waterhemp; 31 g ai/ha): 100
Plant response rating (scale of 0 to 100 where 0 is no effect and 100 is complete control) (waterhemp; 62 g ai/ha): 98
Plant response rating (scale of 0 to 100 where 0 is no effect and 100 is complete control) (waterhemp; 125 g ai/ha): 98
Plant response rating (scale of 0 to 100 where 0 is no effect and 100 is complete control) (waterhemp; 250 g ai/ha): 98
Plant response rating, Barnyardgrass, Flood (barnyardgrass [1]): 30
Plant response rating, Sedge, Umbrella, Flood (sedge, umbrella): 85
Plant response rating (scale of 0 to 100 where 0 is no effect and 100 is complete control) (lambsquarters; 31 g ai/ha): 100
Plant response rating (scale of 0 to 100 where 0 is no effect and 100 is complete control) (lambsquarters; 62 g ai/ha): 100
Plant response rating (scale of 0 to 100 where 0 is no effect and 100 is complete control) (lambsquarters; 125 g ai/ha): 100
Plant response rating (scale of 0 to 100 where 0 is no effect and 100 is complete control) (lambsquarters; 250 g ai/ha): 100
Plant response rating (scale of 0 to 100 where 0 is no effect and 100 is complete control) (oilseed rape; Oilsee Rape, 250 g ai/ha): 85
Plant response rating (scale of 0 to 100 where 0 is no effect and 100 is complete control) (oilseed rape; Oilseed Rape, 31 g ai/ha): 50
Plant response rating (scale of 0 to 100 where 0 is no effect and 100 is complete control) (oilseed rape; Oilseed Rape, 62 g ai/ha): 80
Plant response rating (scale of 0 to 100 where 0 is no effect and 100 is complete control) (oilseed rape; Oilseed Rape, 125 g ai/ha): 85
Plant response rating (scale of 0 to 100 where 0 is no effect and 100 is complete control) (oat, wild; 31 g ai/ha): 15
Plant response rating (scale of 0 to 100 where 0 is no effect and 100 is complete control) (oat, wild; 62 g ai/ha): 30
Plant response rating (scale of 0 to 100 where 0 is no effect and 100 is complete control) (oat, wild; 125 g ai/ha): 20
Plant response rating (scale of 0 to 100 where 0 is no effect and 100 is complete control) (oat, wild; 250 g ai/ha): 35
Plant response rating (scale of 0 to 100 where 0 is no effect and 100 is complete control) (corn; 31 g ai/ha): 20
Plant response rating (scale of 0 to 100 where 0 is no effect and 100 is complete control) (corn; 62 g ai/ha): 20
Plant response rating (scale of 0 to 100 where 0 is no effect and 100 is complete control) (corn; 125 g ai/ha): 25
Plant response rating (scale of 0 to 100 where 0 is no effect and 100 is complete control) (corn; 250 g ai/ha): 30
Plant response rating (scale of 0 to 100 where 0 is no effect and 100 is complete control) (nutsedge, yellow; 31 g ai/ha): 15
Plant response rating (scale of 0 to 100 where 0 is no effect and 100 is complete control) (nutsedge, yellow; 62 g ai/ha): 25
Plant response rating (scale of 0 to 100 where 0 is no effect and 100 is complete control) (nutsedge, yellow; 125 g ai/ha): 20
Plant response rating (scale of 0 to 100 where 0 is no effect and 100 is complete control) (nutsedge, yellow; 250 g ai/ha): 25
Plant response rating (scale of 0 to 100 where 0 is no effect and 100 is complete control) (ryegrass, Italian; 31 g ai/ha): 5
Plant response rating (scale of 0 to 100 where 0 is no effect and 100 is complete control) (ryegrass, Italian; 62 g ai/ha): 5
Plant response rating (scale of 0 to 100 where 0 is no effect and 100 is complete control) (ryegrass, Italian; 125 g ai/ha): 20
Plant response rating (scale of 0 to 100 where 0 is no effect and 100 is complete control) (ryegrass, Italian; 250 g ai/ha): 25
Plant response rating (scale of 0 to 100 where 0 is no effect and 100 is complete control) (galium; 31 g ai/ha): 70
Plant response rating (scale of 0 to 100 where 0 is no effect and 100 is complete control) (galium; 62 g ai/ha): 80
Plant response rating (scale of 0 to 100 where 0 is no effect and 100 is complete control) (galium; 125 g ai/ha): 80
Plant response rating (scale of 0 to 100 where 0 is no effect and 100 is complete control) (galium; 250 g ai/ha): 95
Plant response rating, Pigweed (pigweed [2]; 125 g ai/ha): 100
Plant response rating, Pigweed (pigweed [2]; 500 g ai/ha, approx. 10 d): 100
Plant response rating (scale of 0 to 100 where 0 is no effect and 100 is complete control) (foxtail, giant [3]; 31 g ai/ha): 15
Plant response rating (scale of 0 to 100 where 0 is no effect and 100 is complete control) (foxtail, giant [3]; 62 g ai/ha): 20
Plant response rating (scale of 0 to 100 where 0 is no effect and 100 is complete control) (foxtail, giant [3]; 125 g ai/ha): 20
Plant response rating (scale of 0 to 100 where 0 is no effect and 100 is complete control) (foxtail, giant [3]; 250 g ai/ha): 20
Plant response rating (scale of 0 to 100 where 0 is no effect and 100 is complete control) (blackgrass; 31 g ai/ha): 5
Plant response rating (scale of 0 to 100 where 0 is no effect and 100 is complete control) (blackgrass; 62 g ai/ha): 5
Plant response rating (scale of 0 to 100 where 0 is no effect and 100 is complete control) (blackgrass; 125 g ai/ha): 35
Plant response rating (scale of 0 to 100 where 0 is no effect and 100 is complete control) (blackgrass; 250 g ai/ha): 35
Plant response rating, Pigweed (pigweed [4]; 125 g ai/ha): 90
Plant response rating, Pigweed (pigweed [4]; 500 g ai/ha): 100
Plant response rating (scale of 0 to 100 where 0 is no effect and 100 is complete control) (soybean; 31 g ai/ha): 55
Plant response rating (scale of 0 to 100 where 0 is no effect and 100 is complete control) (soybean; 62 g ai/ha): 40
Plant response rating (scale of 0 to 100 where 0 is no effect and 100 is complete control) (soybean; 125 g ai/ha): 55
Plant response rating (scale of 0 to 100 where 0 is no effect and 100 is complete control) (soybean; 250 g ai/ha): 40
Plant response rating (scale of 0 to 100 where 0 is no effect and 100 is complete control) (chickweed; 31 g ai/ha): 55
Plant response rating (scale of 0 to 100 where 0 is no effect and 100 is complete control) (chickweed; 62 g ai/ha): 80
Plant response rating (scale of 0 to 100 where 0 is no effect and 100 is complete control) (chickweed; 125 g ai/ha): 65
Plant response rating (scale of 0 to 100 where 0 is no effect and 100 is complete control) (chickweed; 250 g ai/ha): 85
Plant response rating (scale of 0 to 100 where 0 is no effect and 100 is complete control) (barnyardgrass [5]; 31 g ai/ha): 25
Plant response rating (scale of 0 to 100 where 0 is no effect and 100 is complete control) (barnyardgrass [5]; 62 g ai/ha): 30
Plant response rating (scale of 0 to 100 where 0 is no effect and 100 is complete control) (barnyardgrass [5]; 125 g ai/ha): 35
Plant response rating (scale of 0 to 100 where 0 is no effect and 100 is complete control) (barnyardgrass [5]; 250 g ai/ha): 35
Plant response rating, Wheat (wheat; 125 g ai/ha): 20
Plant response rating, Wheat (wheat; 500 g ai/ha): 30
Plant response rating, Foxtail, Giant (foxtail, giant [6]; 125 g ai/ha): 70
Plant response rating, Foxtail, Giant (foxtail, giant [6]; 500 g ai/ha): 90
